Laboratory results as given in patent US10201564B2, “Methods of using inhaled nitric oxide gas for treatment of acute respiratory distress syndrome in children” (Mallinckrodt Hospital Products IP Limited, priority 2014, dated 2019).

Test system: pediatric subjects with acute hypoxemic respiratory failure (AHRF)
Test: Pediatric AHRF study: respiratory values (oxygen status, HFOV, CMV, ABG)
Type: in vivo, human
Settings: 5 ppm
Method: Standardized ventilatory management and weaning procedures were used. Ventilatory management was used based on an “open lung approach” using positive end-expiratory pressure (PEEP) to increase lung volume and limiting tidal volumes to reduce plateau pressures. Subjects received nitric oxide for inhalation at 5 ppm or placebo (100% Grade 5 nitrogen gas) into the inspiratory limb of the ventilator circuit using a blinded version of the INOvent® delivery system. The subjects were treated until Day 28 or extubation, whichever occurred first. Subjects were assessed daily using a spontaneous breathing trial, according to the institution's standard of care. Arterial blood gases (ABG), ventilator settings, methemoglobin, oxygenation index, systolic blood pressure, diastolic blood pressure, Pediatric Risk of Mortality (PRISM) III score, and subject positioning (prone or supine) were performed/recorded at specified times during the study. Selected centers also performed plasma cytokine assays, bronchoalveolar lavage fluid (BALF) assays, and a 6-month follow-up assessment.
The following assessments were made at baseline: arterial blood gases, ventilator settings, methemoglobin, prone position, PRISM III score, oxygenation index, systolic and diastolic blood pressure, bronchoalveolar lavage fluid assay and plasma cytokine.
The following assessments were made at 4 hours±1 hour after the start of therapy: arterial blood gases, ventilator settings and methemoglobin.
The following assessments were made at 12 hours±2 hours after the start of therapy: arterial blood gases and ventilator settings.
The following assessments were made at 24 hours±2 hours after the start of therapy: arterial blood gases, ventilator settings, methemoglobin, systolic and diastolic blood pressure and plasma cytokine.
Oxygen status was determined at screening only. Respiratory values in the HFOV category were obtained at baseline, 4 hours, 12 hours, and 24 hours. Respiratory values in the categories conventional mechanical ventilation [CMV] and ABG were obtained at baseline, 4 hours, 12 hours, 24 hours, and at extubation.

## [N]=O [Nitric Oxide, nitric oxide]
4 Hours
  ABG BE, Mean (SD): 0.7 (4.1) mEq/L
  ABG BE, Median: 1.0 mEq/L
  ABG HCO3, Mean (SD): 25.7 (3.9) mEq/L
  ABG HCO3, Median: 25.8 mEq/L
  ABG PaCO2, Mean (SD): 46.0 (18.2) mmHg
  ABG PaCO2, Median: 43.0 mmHg
  ABG PaO2, Mean (SD): 83.2 (22.6) mmHg
  ABG PaO2, Median: 78.5 mmHg
  ABG SaO2, Mean (SD): 95.7 (2.9) %
  ABG SaO2, Median: 95.9%
  ABG pH, Mean (SD): 7.4 (0.1)
  ABG pH, Median: 7.4
12 Hours
  ABG BE, Mean (SD): 1.1 (4.1) mEq/L
  ABG BE, Median: 2.0 mEq/L
  ABG HCO2, Mean (SD): 26.7 (4.1) mEq/L
  ABG HCO2, Median: 27.0 mEq/L
  ABG PaCO2, Mean (SD): 47.4 (8.3) mmHg
  ABG PaCO2, Median: 48.4 mmHg
  ABG PaO2, Mean (SD): 68.7 (20.9) mmHg
  ABG PaO2, Median: 68.0 mmHg
  ABG SaO2, Mean (SD): 93.1 (3.2) %
  ABG SaO2, Median: 94.0%
  ABG pH, Mean (SD): 7.4 (0.1)
  ABG pH, Median: 7.4
24 Hours
  ABG BE, Mean (SD): 2.3 (3.8) mEq/L
  ABG BE, Median: 2.8 mEq/L
  ABG HCO3, Mean (SD): 30.6 (14.1) mEq/L
  ABG HCO3, Median: 28.0 mEq/L
  ABG PaCO2, Mean (SD): 47.2 (11.5) mmHg
  ABG PaCO2, Median: 45.4 mmHg
  ABG PaO2, Mean (SD): 71.4 (16.8) mmHg
  ABG PaO2, Median: 69.0 mmHg
  ABG SaO2, Mean (SD): 92.2 (5.4) %
  ABG SaO2, Median: 93.0%
  ABG pH, Mean (SD): 7.4 (0.1)
  ABG pH, Median: 7.4
Baseline
  ABG BE, Mean (SD): 0.2 (5.3) mEq/L
  ABG BE, Median: 0.4 mEq/L
  ABG HCO3, Mean (SD): 25.6 (5.0) mEq/L
  ABG HCO3, Median: 26.0 mEq/L
  ABG PaCO2, Mean (SD): 45.3 (11.1) mmHg
  ABG PaCO2, Median: 46.5 mmHg
  ABG PaO2, Mean (SD): 67.5 (13.1) mmHg
  ABG PaO2, Median: 63.0 mmHg
  ABG SaO2, Mean (SD): 92.8 (3.5) %
  ABG SaO2, Median: 92.0%
  ABG pH, Mean (SD): 7.4 (0.1)
  ABG pH, Median: 7.4
Extubation Criteria
  ABG BE, Mean (SD): 5.0 (2.6) mEq/L
  ABG BE, Median: 4.0 mEq/L
  ABG HCO3, Mean (SD): 30.2 (2.8) mEq/L
  ABG HCO3, Median: 31.0 mEq/L
  ABG PaCO2, Mean (SD): 47.5 (8.4) mmHg
  ABG PaCO2, Median: 44.0 mmHg
  ABG PaO2, Mean (SD): 91.8 (42.3) mmHg
  ABG PaO2, Median: 78.0 mmHg
  ABG SaO2, Mean (SD): 94.6 (5.9) %
  ABG SaO2, Median: 96.0%
  ABG pH, Mean (SD): 7.4 (0.1)
  ABG pH, Median: 7.4
Screening
  Oxygen Status Oxygen Index 1, Mean (SD): 22.2 (8.2)
  Oxygen Status Oxygen Index 1, Median: 21.3
  Oxygen Status Oxygen Index 2, Mean (SD): 22.7 (7.9)
  Oxygen Status Oxygen Index 2, Median: 23.0
